How the values were obtained:
native rat liver AMPK = native rat liver AMPK (Rattus norvegicus, UniProt P80386); assay: AMPK kinase assay (SAMS peptide), native rat liver AMPK in solution; type: biochemical; settings: up to 100 mM
Method: We next tested the effect of glycogen on the activity of the native AMPK complex purified from rat liver ([Hawley et al., 1996]). […] The bovine liver glycogen inhibited AMPK completely with an IC50 (concentration causing half-maximal inhibition) of 30 ± 9 mM glucose equivalents (Figure 2A).
(§1) Figure 2 Allosteric Inhibition of AMPK by Different Glycogen Preparations (A) Concentration dependence of inhibition of native rat liver AMPK by preparations of bovine and rat liver glycogen; glycogen concentrations expressed as glucose produced after total hydrolysis. Data were fitted to an IC50 equation (see Supplemental Experimental Procedures), and curves were generated using the estimated best-fit parameters. (B) Concentration dependence of inhibition of native rat liver AMPK by bovine liver glycogen in the presence and absence of 200 μM AMP; curves were generated as in (A). (C) Inhibition by bovine liver glycogen of recombinant AMPK complex (myc-α1:β1:γ1) containing full-length (1–270) or truncated β1 subunit lacking the GBD (172–270). Complexes were expressed in CCL13 cells and purified by immunoprecipitation prior to assay with or without glycogen (200 mM glucose equivalents). Data are means ± SEM (n = 3). ^∗Activity different from control without glycogen by t test (p < 0.05). (D) Inhibition by bovine liver glycogen (200 mM glucose equivalents) of purified, native rat liver AMPK (a mixture of α1β1γ1 and α2β1γ1 complexes) that had been recovered by immunoprecipitation (IP) using anti-α1, anti-α2, or a mixture of anti-α1/-α2 antibodies or assayed in solution without immunoprecipitation. Results are expressed as percentages of the activity in controls without glycogen, and data are mean ± SEM (n = 3). (E) Absorption spectra of bovine and rat liver glycogen preparations in complex with iodine. […]
Purification of Native Rat Liver, AMPK, Recombinant AMPK, and AMPK Assays AMPK was purified from rat liver as far as the gel filtration step (Hawley et al., 1996). The kinase was assayed using the SAMS peptide (Davies et al., 1989). IC50 values for inhibition were estimated by fitting data using GraphPad Prism to the equation: Activity = Residual + Maximum - (Maximum × [Inhibitor]/(IC50+[Inhibitor])) where Residual is the activity in the presence of maximal inhibition, Maximum is the maximal inhibition and [inhibitor] is the concentration of the inhibitory molecule. For recombinant AMPK, constructs encoding myc-tagged α1, β1 and γ1 subunits of AMPK were co-transfected into CCL13 cells using modifications of previous methods (Woods et al., 1996). DNA (10 µg) was dissolved in sterile water (450 µl) to which 50 μl of 2.5 M CaCl2 was added, and the solution vortexed for 1 min. […]

[1] = target: T1, recombinant AMPK complex (myc-α1:β1:γ1) (Rattus norvegicus, UniProt P80386); assay: recombinant wild-type AMPK expressed in CCL13 cells, assayed in anti-myc immunoprecipitates; type: biochemical; settings: 2 mM; Figure 6C
T1 construct: recombinant AMPK complex (myc-α1:β1:γ1) containing full-length (1–270) or truncated β1 subunit lacking the GBD (172–270); made in house; host or cells: human CCL13 cells, co-transfected; isolated by anti-myc immunoprecipitation
T1 sequence (P80386 whole entry, the tested form may be a part): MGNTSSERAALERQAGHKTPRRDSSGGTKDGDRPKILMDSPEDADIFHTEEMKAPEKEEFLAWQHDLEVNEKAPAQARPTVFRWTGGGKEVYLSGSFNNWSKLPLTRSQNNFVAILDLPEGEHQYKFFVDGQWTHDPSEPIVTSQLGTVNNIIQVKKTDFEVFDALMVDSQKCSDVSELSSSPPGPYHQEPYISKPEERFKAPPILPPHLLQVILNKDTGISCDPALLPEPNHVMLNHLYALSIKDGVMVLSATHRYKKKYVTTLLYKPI
T1 sequence (P54645 13-559 partner limits assumed): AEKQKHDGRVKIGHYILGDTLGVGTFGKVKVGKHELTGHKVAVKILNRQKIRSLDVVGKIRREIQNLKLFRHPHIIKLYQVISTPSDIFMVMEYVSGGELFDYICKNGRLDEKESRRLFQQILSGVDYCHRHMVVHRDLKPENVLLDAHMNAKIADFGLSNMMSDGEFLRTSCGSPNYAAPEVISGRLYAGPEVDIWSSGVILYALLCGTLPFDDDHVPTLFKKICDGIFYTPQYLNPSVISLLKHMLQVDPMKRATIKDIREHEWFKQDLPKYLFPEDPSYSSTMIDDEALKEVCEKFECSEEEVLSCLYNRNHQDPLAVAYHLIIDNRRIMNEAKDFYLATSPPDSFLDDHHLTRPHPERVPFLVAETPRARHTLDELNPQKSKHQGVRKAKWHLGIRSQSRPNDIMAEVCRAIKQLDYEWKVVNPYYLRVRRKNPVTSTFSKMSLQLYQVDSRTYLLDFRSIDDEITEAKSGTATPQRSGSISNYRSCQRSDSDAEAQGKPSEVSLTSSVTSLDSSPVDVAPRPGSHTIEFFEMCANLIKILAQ
T1 sequence (P80385 whole entry partner, the tested form may be a part): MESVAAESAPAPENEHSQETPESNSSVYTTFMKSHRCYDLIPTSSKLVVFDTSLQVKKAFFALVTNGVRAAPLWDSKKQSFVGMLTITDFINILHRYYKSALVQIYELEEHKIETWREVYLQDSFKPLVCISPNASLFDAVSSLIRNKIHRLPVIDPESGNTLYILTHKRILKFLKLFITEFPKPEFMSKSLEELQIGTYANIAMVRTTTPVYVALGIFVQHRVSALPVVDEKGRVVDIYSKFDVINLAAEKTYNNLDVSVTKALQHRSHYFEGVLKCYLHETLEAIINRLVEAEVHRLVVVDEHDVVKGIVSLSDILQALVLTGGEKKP
From the text: as §1, with “(D) Inhibition by bovine liver glycogen (200 mM glucose equivalents) of purified, native rat liver AMPK (a mixture of α1β1γ1 and α2β1γ1 complexes) that had been recovered by immunoprecipitation (IP) using anti-α1, anti-α2, or a mixture of anti-α1/-α2 antibodies or assayed in solution without immunoprecipitation.” left out, “3).” for “3). (E) Absorption spectra of bovine and rat liver glycogen preparations in complex with iodine.”

[2] = target: bacterially expressed rat β1 GBD; parameters: method as in Koay et al. (2007); settings: NMR method; ref Koay et al. (2007); read-out: KD for binding to rat β1 GBD; cited from earlier work
[3] = target: T2, recombinant α1β1γ1 complex with β1 GBD mutations (W100G/W133A and others) (Rattus norvegicus, UniProt P80386, W100G/W133A); assay: recombinant AMPK with GBD point mutations in β1, assayed in immunoprecipitates; type: biochemical; settings: 2 mM; Figure 4B
T2 construct: we made mutations in full-length β1 coexpressed with α1 and γ1 in CCL13 cells; made in house; host or cells: human CCL13 cells, co-transfected; isolated by anti-myc immunoprecipitation
T2 sequence (P80386 2-270 W100G/W133A): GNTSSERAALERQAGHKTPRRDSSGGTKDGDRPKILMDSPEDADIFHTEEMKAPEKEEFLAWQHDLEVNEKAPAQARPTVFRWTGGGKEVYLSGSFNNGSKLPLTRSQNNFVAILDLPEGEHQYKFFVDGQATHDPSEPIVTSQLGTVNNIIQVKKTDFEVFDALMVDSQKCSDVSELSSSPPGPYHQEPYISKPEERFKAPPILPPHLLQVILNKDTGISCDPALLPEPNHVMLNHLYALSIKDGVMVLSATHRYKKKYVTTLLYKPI
T2 sequence (P54645 whole entry partner): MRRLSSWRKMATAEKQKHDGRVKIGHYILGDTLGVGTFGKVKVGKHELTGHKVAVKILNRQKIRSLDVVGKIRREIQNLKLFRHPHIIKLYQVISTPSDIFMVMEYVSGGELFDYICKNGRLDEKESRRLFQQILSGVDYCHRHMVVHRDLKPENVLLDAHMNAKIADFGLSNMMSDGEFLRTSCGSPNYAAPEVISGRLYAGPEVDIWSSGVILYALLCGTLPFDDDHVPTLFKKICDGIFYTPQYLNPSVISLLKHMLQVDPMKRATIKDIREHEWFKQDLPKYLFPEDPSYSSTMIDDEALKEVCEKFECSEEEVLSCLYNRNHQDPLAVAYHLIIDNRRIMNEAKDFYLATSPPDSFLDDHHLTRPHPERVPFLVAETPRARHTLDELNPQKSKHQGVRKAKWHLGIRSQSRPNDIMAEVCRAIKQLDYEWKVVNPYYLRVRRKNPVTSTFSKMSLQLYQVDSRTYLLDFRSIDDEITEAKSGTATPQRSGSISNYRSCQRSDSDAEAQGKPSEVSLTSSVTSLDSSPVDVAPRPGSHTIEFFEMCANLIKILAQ
T2 sequence (P80385 whole entry partner): as the sequence (P80385 whole entry partner, the tested form may be a part) above
From the text: To test whether mutations that interfered with the binding of glycogen to the GBD also affected inhibition of AMPK by glycogen, we made mutations in full-length β1 coexpressed with α1 and γ1 in CCL13 cells, isolated the complex by immunoprecipitation via the myc tag on α1, and assayed the kinase activity in the presence and absence of glycogen. The activities were adjusted to correct for slight variation in recovery of the α1 subunit assessed by blotting (inset in Figure 3A). […] Because all of these assays were conducted in resuspended immunoprecipitates, the degree of inhibition of the wild-type was < 50%, as discussed in the previous section. […]
Figure 3 Effect of β Subunit Mutations on Inhibition of Recombinant AMPK Complexes by Glycogen (A) Myc-α1, γ1, and β1 with the wild-type sequence or the indicated mutations were expressed in CCL13 cells, immunoprecipitated, and assayed ± bovine liver glycogen (200 mM glucose equivalents); results are mean ± SEM (n = 3). […] (C) Myc-α1, γ1, and β1 with the wild-type sequence or with W100G/W133A mutations were expressed in CCL13 cells, immunoprecipitated using anti-myc (left) or anti-FLAG (right) antibodies, and analyzed by western blotting using anti-myc antibodies (top panels) or a mixture of anti-β1 and -γ1 antibodies (bottom panels). […]

rat β1 GBD = settings: cited from earlier work; for concentration that displaces the β1 GBD from glycogen: ref Polekhina et al. (2005)
GBD = target: T3, GBD (Rattus norvegicus, UniProt P80386); assay: binding of linear oligosaccharides to the GBD (data not shown)
T3 construct: The rat β1 GBD (residues 70-172 was cloned into pGEX6P2, expressed in Escherichia coli (BL21)); GST (N); made in house; host or cells: E. coli BL21 (inferred)
T3 sequence (P80386 70-172): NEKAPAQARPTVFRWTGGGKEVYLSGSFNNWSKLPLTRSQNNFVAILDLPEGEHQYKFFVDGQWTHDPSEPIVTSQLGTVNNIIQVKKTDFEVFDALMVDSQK

native rat liver AMPK, sequence (P80386 2-270): as the sequence (P80386 2-270 W100G/W133A) above, with G99W, A132W counted along it
native rat liver AMPK, sequence (P54645 whole entry partner): as the sequence (P54645 whole entry partner) above
native rat liver AMPK, sequence (Q09137 whole entry partner): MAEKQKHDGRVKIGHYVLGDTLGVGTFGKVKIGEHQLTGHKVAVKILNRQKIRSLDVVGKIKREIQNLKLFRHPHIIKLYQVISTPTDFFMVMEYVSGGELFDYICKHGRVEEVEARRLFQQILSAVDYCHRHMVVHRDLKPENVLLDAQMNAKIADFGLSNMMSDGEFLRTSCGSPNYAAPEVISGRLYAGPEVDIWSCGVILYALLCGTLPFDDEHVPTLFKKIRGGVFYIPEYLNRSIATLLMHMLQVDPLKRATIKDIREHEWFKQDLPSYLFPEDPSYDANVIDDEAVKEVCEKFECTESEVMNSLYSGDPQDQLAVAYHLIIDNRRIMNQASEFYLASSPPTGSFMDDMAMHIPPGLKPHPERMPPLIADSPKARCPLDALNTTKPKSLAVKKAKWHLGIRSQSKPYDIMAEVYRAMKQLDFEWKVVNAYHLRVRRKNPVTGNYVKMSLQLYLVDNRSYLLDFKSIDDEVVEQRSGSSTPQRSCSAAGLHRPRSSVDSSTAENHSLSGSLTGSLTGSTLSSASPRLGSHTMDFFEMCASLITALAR
native rat liver AMPK, sequence (P80385 whole entry partner): as the sequence (P80385 whole entry partner, the tested form may be a part) above

Row | Compound | inhibition at concentrations up to 100 mM (native rat liver AMPK) | inhibition of wild-type recombinant α1β1γ1 [1] | inhibition of W100G/W133A mutant [3] | binding to the GBD (GBD) | Kd [2] | competition with glycogen for binding to the GBD (rat β1 GBD; ref Polekhina et al. (2003, 2005)) | concentration that displaces the β1 GBD from glycogen (rat β1 GBD)
1 | OC[C@H]1O[C@H](O[C@H]2[C@H](O)[C@@H](O)C(O)O[C@@H]2CO)[C@H](O)[C@@H](O)[C@@H]1O (mixture of isomers) [maltose] | did not cause any inhibition | – | – | – | – | – | –
2 | CO[C@H]1O[C@H](CO)[C@@H](O[C@H]2O[C@H](CO)[C@@H](O)[C@H](O)[C@H]2O)[C@H](O)[C@H]1O [Oligosaccharide 8, methyl α-maltoside] | – | not significant | – | – | – | – | –
3 | maltoheptaose | almost no inhibition | – | – | could bind | 400 µM | – | greater than 1 mM

Second part, led by results:

Row | inhibition at concentrations up to 100 mM (native rat liver AMPK) | inhibition of wild-type recombinant α1β1γ1 [1] | inhibition of W100G/W133A mutant [3] | binding to the GBD (GBD) | Compound | Kd [2] | competition with glycogen for binding to the GBD (rat β1 GBD; ref Polekhina et al. (2003, 2005)) | concentration that displaces the β1 GBD from glycogen (rat β1 GBD)
4 | – | – | abolished | – | OC[C@H]1O[C@@H]2O[C@H]3[C@H](O)[C@@H](O)[C@@H](O[C@H]4[C@H](O)[C@@H](O)[C@@H](O[C@H]5[C@H](O)[C@@H](O)[C@@H](O[C@H]6[C@H](O)[C@@H](O)[C@@H](O[C@H]7[C@H](O)[C@@H](O)[C@@H](O[C@H]8[C@H](O)[C@@H](O)[C@@H](O[C@H]1[C@H](O)[C@H]2O)O[C@@H]8CO)O[C@@H]7CO)O[C@@H]6CO)O[C@@H]5CO)O[C@@H]4CO)O[C@@H]3CO [β-cyclodextrin] | 300 µM | can compete | –
5 | almost no inhibition | – | – | could bind | maltohexaose | 700 µM | – | greater than 1 mM

Source: PMC2642990, “The Glycogen-Binding Domain on the AMPK β Subunit Allows the Kinase to Act as a Glycogen Sensor” (Cell Metabolism, 2009)
